Assay results reported in patent publication US11331368B2, “Angiotensin receptor agonists and uses thereof” (Monash University, priority 2017, dated 2022).

What was measured:
[1] = tested on: male FVB/N mice on high salt diet, heart; assay: High salt (5%) diet intervention model, heart; format: in vivo, mouse
Summary of the method: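 Male FVB/N mice fed 5% salt diet for 8 weeks (controls 0.35% NaCl); from week 4, AT2R agonist at 75 pmol/kg/min or saline given subcutaneously by osmotic minipump for 4 weeks on continued high salt. Heart collagen by picrosirius red, % interstitial staining averaged over eight fields; immunofluorescence for fibrosis/inflammation markers.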

[2] = tested on: human cardiac fibroblasts; assay: TGF-β1-induced collagen production in human cardiac fibroblasts (Western blot); format: cell-based; conditions: co-treated with TGF-β1 for 3 days, increasing concentrations up to 1 μM
Experimental: D) Human cardiac fibroblasts (HCFs) were treated with TGFβ1 to induce a pro-fibrotic phenotype state in cell culture, exemplified by increased collagen-1 production, measured by Western blot. HCFs were treated with TGFβ1 alone, or in the presence of an AT2R agonist for 3 days, and the ability of AT2R agonists to inhibit TGFβ1-induced collagen-1 production was measured.
Commercially available human cardiac fibroblasts (HCF, Catalog #6300, Sciencell, Calif., USA) were grown in T75 flask maintained in an incubator at 37° C., 5% CO2. Complete media composition: M199 media (#11150-059, life technologies)+10% FBS (#10437-028, life technologies)+1% Fibroblast Growth Supplement-2 (#2382, ScienCell)+1% penicillin/streptomycin 10,000 U/ml antibiotics (#15140-122, Life Technologies). Fresh complete media was replenished every alternate day until culture reached 70% confluence in which media is replenished daily until it reached approximately 90% confluence in order to passage/subculture. To subculture, media was discarded and culture was rinsed with warm PBS. After which, culture was detached using warm 0.05% Trypsin+EDTA with gentle swirling of flask to make sure cells were not adherent to surface of flask. Trypsin was then neutralized with complete media and suspension was then transferred into a new falcon tube and centrifuged at 1000 rpm for 5 minutes. Supernatant was discarded and pellet of cells were resuspended with 5 ml of complete media, followed by cell counting. For subculturing/passaging, 1 million HCFs are placed into a T75 flask. For Picrosirius Red (PSR) staining or immunofluorescence experiments, 100 k cells were loaded per well in a 24 well plate lined with round coverslips. […]
Once treatment is complete, cells were washed with warm PBS and detached using Accutase (A6964, Sigma), with 5 minutes incubation at 37° C. […] The supernatant (˜20 ul) was transferred to a new tube and protein concentrations were measured using Biorad Lowry protein assay. Protein quantification of respective markers were performed via standard western blot analysis. […]

Arg-Val-Tyr-Ile-His-β-Pro-Phe [βPro-Ang III]
myofibroblast differentiation in heart (α-SMA) ([1]; 75 pmol/kg/min s.c., weeks 5-8): fully reversed the high salt-induced myofibroblast differentiation | cardiac fibrosis (picrosirius red) ([1]; weeks 5-8 of high salt diet, peptides 75 pmol/kg/min s.c. mini-pump, Cand 2 mg/kg/day, captopril 3 mg/kg/day in drinking water): reversed established cardiac fibrosis | TGF-β1-induced collagen production [2]: dose-dependent decreases
